Laboratory results: patent US7078059B2, “Treatment of bone diseases” (Shire Holdings AG, priority 2000, dated 2006)
Where two headings read alike, the source gives them in different places.

How the values were obtained:
[1] = system: osteoclast precursors in mouse bone marrow; conditions: for Relative TRAP 5b activities, Mean ± SD: relative to mean of baseline group; for Combined results on osteoclast differentiation (relative TRAP 5b activity), Mean ± SD: tables 4-6 combined, number 18 (LA 100) or 12; for Effect on osteoclast differentiation, in words: vs baseline with 1,25-dihydroxyvitamin D3; for Osteoclast differentiation: significance of activation/inhibition vs baseline
From the text: A method known as mouse bone marrow culture system is the one most widely used to study osteoclast differentiation. Originally, this method was developed by Takahashi et al. (1988a). Osteoclast precursors in mouse bone marrow can be induced to form multinucleated osteoclast-like cells (MNC) in the presence of either an active metabolite of vitamin D3 (1,25(OH)2D3) or parathyroid hormone (PTH). […] They form pits on bone or dentine slices (Takahashi et al. 1988a, Hattersley and Chambers 1989, Shinar et al. 1990); they express high levels of tartrate-resistant acid phosphatase (TRAP) and calcitonin receptors (Takahashi et al. 1988b, Shinar et al. 1990); and they respond to calcitonin (Takahashi et al. 1988a) and prostaglandin E2 (Collins and Chambers 1992). Thus, the method is an ideal one with which to study both stimulators and inhibitors of osteoclast differentiation.
In the original culture system, the osteoclast formation was determined after an 8-day culture. In bone marrow, both non-adherent osteoclast precursors and stromal cells are present, the latter of which are needed to support osteoclast formation. The number of osteoclasts formed is generally determined by counting the number of TRAP-positive MNC containing at least three nuclei (Takahashi et al. 1988a).
We have modified the original assay so that we culture 1×10^6 mouse marrow cells/ml for 6 days. […] Instead of counting of the number of differentiated osteoclasts formed, we measured the amount of TRAP liberated from osteoclasts into the culture medium using a fast, simple TRAP immunoassay (Halleen et al. 1999) presentation in the Annual Meeting of the American Society for Bone and Mineral Research, Sep. 30-Oct. 4, 1999, in St. Louis, Mo., USA.
8-10-week old mice were killed with CO2. Tibia and femora were dissected free from adhering soft tissues. The bone ends were cut off with a scalpel and the marrow was flushed with α-Minimal Essential Medium (α-MEM, Gibco BRL, Paisley, UK) supplemented with 100 IU/ml penicillin and 100 μg/ml streptomycin. A 10 ml syringe with a 27 gauge needle was used for flushing. Cells were centrifuged at 600×G for 10 minutes and the cell pellet was resuspended in -MEM containing 10% fetal calf serum. Cells were allowed to attach to plastic for 2 h at 37° C. in a 5% CO2 incubator to allow removal of monocytes and macrophages. Nonadherent cells were duly removed, and the […] bone marrow cells were cultured in 24-well plates (1×10^6 cells/well=1 ml) for 6 days. Half of the media were changed at day 3 and the treatments replaced. At the end of the culture, the plates were fixed with 2% paraformaldehyde in PBS for 20 minutes. Osteoclast formation was determined by measuring TRAP activity from the culture media using the novel TRAP immunoassay (vide infra), where we use a polyclonal TRAP antiserum prepared in rabbits against purified human bone TRAP. The TRAP antibody was bound to anti-rabbit IgG coated microtiter wells (Gibco BRL, Paisley, UK), and medium TRAP was then bound to the antibody. The activity of bound TRAP was measured in sodium acetate buffer using pNPP as substrate.
In this study, the effect of the lanthanum (III) ion on osteoclast differentiation in the presence of 1,25-dihydroxyvitamin D3 was tested. The following sample groups were included: • Baseline (including vehicle) • Control (Baseline without 1,25-dihydroxyvitamin D3) • Baseline+100 ng/ml lanthanum • Baseline+500 ng/ml lanthanum • Baseline+1000 ng/ml lanthanum • Baseline+5000 ng/ml lanthanum • Baseline+15000 ng/ml lanthanum
Six replicates were included in each group, and the test was performed twice. Baseline without 1,25-dihydroxyvitamin D3 was used as a control to show the test system allows inhibition of osteoclast differentiation to be detected.

[2] = system: limb bud mesodermal cells; conditions: organoid cultures; cited from earlier work
osteoclasts = conditions: extracellular application; cited from earlier work
[3] = system: iliac crest of growing immature dogs
Procedure: The specimens taken from the iliac crest of growing immature dogs were analysed. The group was divided into a control and treatment group. The treatment group received 1000 mg/Kg/day of lanthanum carbonate administered orally twice daily. The groups were run for 13 weeks, after which time samples of bone were taken vertically through the iliac crest, embedded in methyl methacrylate based resin, sectioned and stained with toluidine blue and Von Kossa stain.

[4] = first osteoclast differentiation assay, with 1,25-dihydroxyvitamin D3, 6 days, LA number = ng/ml lanthanum
[5] = second osteoclast differentiation assay, with 1,25-dihydroxyvitamin D3, 6 days, LA number = ng/ml lanthanum

SMILES	Relative TRAP 5b activities, Mean ± SD [1, 4]	Relative TRAP 5b activities, Mean ± SD [1, 5]	Combined results on osteoclast differentiation (relative TRAP 5b activity), Mean ± SD ([1]; LA number = ng/ml lanthanum)	Effect on osteoclast differentiation, in words ([1]; LA number = ng/ml lanthanum)	also measured
O.O.O.O.O=C([O-])[O-].O=C([O-])[O-].O=C([O-])[O-].[La+3].[La+3] [LA 100, lanthanum carbonate tetrahydrate]	0.87 ± 0.33	0.54 ± 0.15(**)	0.70 ± 0.27 (**)		Relative TRAP 5b activities, Mean ± SD ([1]; third osteoclast differentiation assay with LA 100 (100 ng/ml lanthanum)): 0.69 ± 0.21(*)
O.O.O.O.O=C([O-])[O-].O=C([O-])[O-].O=C([O-])[O-].[La+3].[La+3] [LA 500, lanthanum carbonate tetrahydrate]	0.71 ± 0.22	1.07 ± 0.24	0.89 ± 0.29		
O.O.O.O.O=C([O-])[O-].O=C([O-])[O-].O=C([O-])[O-].[La+3].[La+3] [LA 1000, lanthanum carbonate tetrahydrate]	0.60 ± 0.25	0.69 ± 0.21	0.65 ± 0.23 (**)	decreases the formation of osteoclasts	
O.O.O.O.O=C([O-])[O-].O=C([O-])[O-].O=C([O-])[O-].[La+3].[La+3] [LA 5000, lanthanum carbonate tetrahydrate]	0.44 ± 0.06(*)	0.56 ± 0.27(*)	0.50 ± 0.20 (***)		
O.O.O.O.O=C([O-])[O-].O=C([O-])[O-].O=C([O-])[O-].[La+3].[La+3] [LA 15000, lanthanum carbonate tetrahydrate]	0.36 ± 0.27(*)	0.25 ± 0.07(***)	0.30 ± 0.19 (***)		
O.O.O.O.O=C([O-])[O-].O=C([O-])[O-].O=C([O-])[O-].[La+3].[La+3] [LA, lanthanum carbonate tetrahydrate]				inhibits osteoclast differentiation	Calcium accumulation [2]: reduced calcium accumulation; Endochondral mineralization [2]: inhibited endochondral mineralization; Cytosolic calcium in osteoclasts (osteoclasts): concentration-dependant elevation of cytosolic calcium; Bone formation in growing dogs ([3]; dose of 2,000 mg/kg/day lanthanum): enhanced bone formation; Bone volume and density compared to control animals ([3]; growing dogs, dose of 2,000 mg/kg/day lanthanum): significant increase; Other bone parameters investigated, treated vs control group ([3]; growing immature dogs, 1000 mg/Kg/day of lanthanum carbonate orally twice daily, 13 weeks, iliac crest): no statistically significant difference; Osteoclast differentiation ([1]; Dose 100 ng/ml): − −; Osteoclast differentiation ([1]; Dose 500 ng/ml): 0; Osteoclast differentiation ([1]; Dose 1000 ng/ml): − −; Osteoclast differentiation ([1]; Dose 5000 ng/ml): − − −; Osteoclast differentiation ([1]; Dose 15000 ng/ml): − − −
